Reference: patent publication US20140088103A1, “(FUSED RING ARYLAMINO AND HETEROCYCLYLAMINO) PYRIMIDINYL AND 1,3,5-TRIAZINYL BENZIMIDAZOLES, PHARMACEUTICAL COMPOSITIONS THEREOF, AND THEIR USE IN TREATING PROLIFERATIVE DISEASES” (MEI PHARMA, INC., priority 2011, published 2014)

Assays:
[1] = target: T1, PI3K alpha (p110α) (Homo sapiens, UniProt P42336); test: Luciferase-based luminescence assay (Kinase GLO), PI3K alpha; assay type: biochemical; settings: 1.65 nM enzyme, 50 μM PIP2, 25 μM ATP, 1 hour reaction
T1 construct: purchased Invitrogen Corp., Carlsbad, Calif., USA
Procedure: (§1) PI3K catalyzes the conversion of phosphatidylinositol-4,5-bisphosphate (PIP2) and ATP to phosphatidylinositol-3,4,5-trisphosphate (PIP3) and ADP. PI3K enzymatic activity was determined by measuring the amount of ATP consumed following the kinase reaction using a luciferase-based luminescence assay (Kinase GLO®, Promega Corp., Madison, Wis., USA) in a reaction buffer. The reaction buffer contained 50 mM HEPES, pH 7.5, 3 mM MgCl2, 1 mM EGTA, 100 mM NaCl, 0.03% CHAPS, and 2 mM DTT. Compounds for testing were dissolved and serially diluted in 100% DMSO (total of 10 concentrations), and then diluted 1:25 in the reaction buffer. PI3K enzyme solutions were prepared by diluting PI3K alpha (Invitrogen Corp., Carlsbad, Calif., USA) or PI3K delta (Millipore, Billerica, Mass., USA) in the reaction buffer to 4× the final assay concentration. The final concentrations of enzymes were 1.65 nM and 6.86 nM for PI3K alpha and PI3K delta, respectively. A substrate solution was prepared by mixing PIP2 and ATP in reaction buffer at 2× the final assay concentration. The final concentrations were 50 μM and 25 μM for PIP2 and ATP, respectively. To individual wells of white low volume 384-well assay plates were added 2.5 μl each of the compound and kinase mixtures, followed by shaking. The reactions were started by adding 5 μl of substrate mixture per well and shaking. The assay plates were covered and reactions were allowed to proceed for 1 hour (PI3K alpha) or 2 hours (PI3K delta), after which 10 μl of Kinase GLO® reagent was added. The plates were briefly centrifuged and incubated for 10 minutes, after which luminescence was measured using a FlexStation plate reader (Molecular Devices, Sunnyvale, Calif., USA). IC50 values were determined by curve fitting using Graphpad Prism software (Graphpad Software, La Jolla, Calif., USA).

[2] = target: T2, PI3K delta (p110δ) (Homo sapiens, UniProt O00329); test: Luciferase-based luminescence assay (Kinase GLO), PI3K delta; assay type: biochemical; settings: for IC50: 6.86 nM enzyme, 50 μM PIP2, 25 μM ATP, 2 hours reaction; for α/δ ratio: ratio of IC50 against PI3Kα over IC50 against PI3Kδ
T2 construct: purchased Millipore, Billerica, Mass., USA
Procedure: as §1

T2 sequence (O00329 whole entry): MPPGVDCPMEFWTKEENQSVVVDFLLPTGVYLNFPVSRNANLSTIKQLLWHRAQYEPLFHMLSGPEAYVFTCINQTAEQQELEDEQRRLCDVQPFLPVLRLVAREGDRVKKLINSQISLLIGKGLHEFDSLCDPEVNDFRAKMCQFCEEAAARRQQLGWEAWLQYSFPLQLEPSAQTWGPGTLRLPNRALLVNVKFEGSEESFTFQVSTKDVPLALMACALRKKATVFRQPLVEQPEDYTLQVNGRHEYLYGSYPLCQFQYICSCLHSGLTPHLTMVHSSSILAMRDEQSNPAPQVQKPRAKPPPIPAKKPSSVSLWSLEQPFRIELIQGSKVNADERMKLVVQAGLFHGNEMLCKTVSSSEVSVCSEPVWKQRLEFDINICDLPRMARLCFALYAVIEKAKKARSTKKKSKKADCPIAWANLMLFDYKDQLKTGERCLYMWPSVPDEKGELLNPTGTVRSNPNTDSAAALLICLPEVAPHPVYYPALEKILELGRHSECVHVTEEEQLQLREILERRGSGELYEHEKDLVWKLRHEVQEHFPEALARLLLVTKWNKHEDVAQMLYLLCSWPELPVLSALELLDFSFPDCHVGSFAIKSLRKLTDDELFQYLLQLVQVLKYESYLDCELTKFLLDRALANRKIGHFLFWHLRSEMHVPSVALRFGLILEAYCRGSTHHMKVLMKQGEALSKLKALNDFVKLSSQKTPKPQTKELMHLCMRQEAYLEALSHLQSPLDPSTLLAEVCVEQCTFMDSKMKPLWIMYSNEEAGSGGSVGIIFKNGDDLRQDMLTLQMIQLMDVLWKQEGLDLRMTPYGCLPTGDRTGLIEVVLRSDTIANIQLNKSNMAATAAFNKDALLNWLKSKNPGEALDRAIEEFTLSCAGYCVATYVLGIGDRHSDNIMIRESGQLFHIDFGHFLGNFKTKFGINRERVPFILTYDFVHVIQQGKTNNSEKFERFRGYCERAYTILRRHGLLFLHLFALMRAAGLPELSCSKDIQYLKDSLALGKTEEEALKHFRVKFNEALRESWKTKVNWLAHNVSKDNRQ
T2 sequence (P27986 whole entry partner): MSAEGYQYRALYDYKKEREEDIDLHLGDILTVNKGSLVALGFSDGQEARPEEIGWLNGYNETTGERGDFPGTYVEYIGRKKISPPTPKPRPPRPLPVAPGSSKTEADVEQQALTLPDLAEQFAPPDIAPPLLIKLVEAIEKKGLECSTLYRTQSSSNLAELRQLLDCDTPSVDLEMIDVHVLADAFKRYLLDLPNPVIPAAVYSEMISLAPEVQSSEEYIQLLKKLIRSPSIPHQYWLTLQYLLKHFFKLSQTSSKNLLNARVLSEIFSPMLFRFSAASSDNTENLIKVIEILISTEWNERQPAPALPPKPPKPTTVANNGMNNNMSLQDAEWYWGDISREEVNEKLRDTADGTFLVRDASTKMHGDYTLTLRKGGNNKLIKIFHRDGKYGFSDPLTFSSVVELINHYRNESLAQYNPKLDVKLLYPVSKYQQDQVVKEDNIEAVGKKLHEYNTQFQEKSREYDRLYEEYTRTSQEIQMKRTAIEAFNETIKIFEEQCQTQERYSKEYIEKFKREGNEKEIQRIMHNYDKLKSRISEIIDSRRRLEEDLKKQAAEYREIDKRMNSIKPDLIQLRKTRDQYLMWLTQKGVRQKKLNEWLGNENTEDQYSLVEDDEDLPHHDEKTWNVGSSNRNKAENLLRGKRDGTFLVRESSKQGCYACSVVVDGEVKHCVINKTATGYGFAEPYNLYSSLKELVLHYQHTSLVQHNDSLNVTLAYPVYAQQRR
T1 sequence (P42336 whole entry): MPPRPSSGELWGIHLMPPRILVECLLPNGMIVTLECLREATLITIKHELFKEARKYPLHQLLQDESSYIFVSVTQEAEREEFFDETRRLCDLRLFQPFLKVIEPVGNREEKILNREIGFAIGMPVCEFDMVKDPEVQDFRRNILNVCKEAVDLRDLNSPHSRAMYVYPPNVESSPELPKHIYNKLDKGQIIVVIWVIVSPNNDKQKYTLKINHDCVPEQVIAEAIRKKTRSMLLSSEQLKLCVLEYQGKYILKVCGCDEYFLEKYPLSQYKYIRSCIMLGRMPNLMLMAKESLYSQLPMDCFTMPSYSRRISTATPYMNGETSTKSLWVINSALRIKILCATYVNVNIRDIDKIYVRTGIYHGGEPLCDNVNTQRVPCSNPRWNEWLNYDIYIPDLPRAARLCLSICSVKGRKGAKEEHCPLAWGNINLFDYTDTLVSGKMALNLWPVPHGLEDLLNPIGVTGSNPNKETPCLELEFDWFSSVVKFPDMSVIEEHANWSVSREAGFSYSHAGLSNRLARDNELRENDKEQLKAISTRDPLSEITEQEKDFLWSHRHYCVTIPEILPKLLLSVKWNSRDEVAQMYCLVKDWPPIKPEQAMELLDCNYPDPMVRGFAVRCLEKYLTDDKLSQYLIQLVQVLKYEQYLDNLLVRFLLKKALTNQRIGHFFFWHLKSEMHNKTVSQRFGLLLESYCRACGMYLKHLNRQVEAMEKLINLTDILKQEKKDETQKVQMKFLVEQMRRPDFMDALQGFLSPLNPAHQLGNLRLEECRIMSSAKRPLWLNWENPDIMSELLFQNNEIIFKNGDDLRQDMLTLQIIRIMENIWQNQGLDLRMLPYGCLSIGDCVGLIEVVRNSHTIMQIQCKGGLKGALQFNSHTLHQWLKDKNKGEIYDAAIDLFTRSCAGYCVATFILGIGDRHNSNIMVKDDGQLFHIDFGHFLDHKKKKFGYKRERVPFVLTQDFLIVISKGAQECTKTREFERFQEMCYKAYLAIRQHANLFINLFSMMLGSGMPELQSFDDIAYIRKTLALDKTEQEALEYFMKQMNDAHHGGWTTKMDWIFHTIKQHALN
T1 sequence (P27986 whole entry partner): as the sequence (P27986 whole entry partner) above

Structure (SMILES) | IC50 [1] [µM] | IC50 [2] [µM] | α/δ ratio [2]
FC(F)c1nc2ccccc2n1-c1nc(NC2CCc3cc(Cl)ccc32)nc(N2CCOCC2)n1 (stereo not drawn) [Compound A7, N-(5-chloro-2,3-dihydro-1H-inden-1-yl)-4-(2-(difluoromethyl)-1H-benzo[d]imidazol-1-yl)-6-morpholino-1,3,5-triazin-2-amine] | > 0.5 | > 0.5 | A′ (A′ represents a ratio of greater than 8)
FC(F)c1nc2ccccc2n1-c1nc(N[C@@H]2CCc3ccccc32)nc(N2CCOCC2)n1 [Compound A6, (R)-4-(2-(difluoromethyl)-1H-benzo[d]imidazol-1-yl)-N-(2,3-dihydro-1H-inden-1-yl)-6-morpholino-1,3,5-triazin-2-amine] | > 0.5 | 0.2 to 0.5 | C′ (C′ represents a ratio of greater than 2 but less than 4)
FC(F)c1nc2ccccc2n1-c1nc(NC2CCCc3ccccc32)nc(N2CCOCC2)n1 (stereo not drawn) [Compound A1, 4-(2-(difluoromethyl)-1H-benzo[d]imidazol-1-yl)-6-morpholino-N-(1,2,3,4-tetrahydronaphthalen-1-yl)-1,3,5-triazin-2-amine] | > 0.5 | 0.1 to 0.2 | A′ (A′ represents a ratio of greater than 8)
COc1ccc2c(c1)C(Nc1nc(N3CCOCC3)nc(-n3c(C(F)F)nc4ccccc43)n1)CC2 (stereo not drawn) [Compound A10, 4-(2-(difluoromethyl)-1H-benzo[d]imidazol-1-yl)-N-(6-methoxy-2,3-dihydro-1H-inden-1-yl)-6-morpholino-1,3,5-triazin-2-amine] | > 0.5 | 0.2 to 0.5 | C′ (C′ represents a ratio of greater than 2 but less than 4)
FC(F)c1nc2ccccc2n1-c1nc(NC2CCc3ccc(Cl)cc32)nc(N2CCOCC2)n1 (stereo not drawn) [Compound A8, N-(6-chloro-2,3-dihydro-1H-inden-1-yl)-4-(2-(difluoromethyl)-1H-benzo[d]imidazol-1-yl)-6-morpholino-1,3,5-triazin-2-amine] | > 0.5 | 0.2 to 0.5 | A′ (A′ represents a ratio of greater than 8)
FC(F)c1nc2ccccc2n1-c1nc(NCc2ccccc2)nc(N2CCOCC2)n1 [Ref. 1, N-benzyl-4-(2-(difluoromethyl)-1H-benzo[d]imidazol-1-yl)-6-morpholino-1,3,5-triazin-2-amine, reference compound] | 0.1 to 0.2 | 0.1 to 0.2 | D′ (D′ represents a ratio of no greater than 2)
FC(F)c1nc2ccccc2n1-c1nc(N[C@H]2CCCc3ccccc32)nc(N2CCOCC2)n1 [Compound A2, (S)-4-(2-(difluoromethyl)-1H-benzo[d]imidazol-1-yl)-6-morpholino-N-(1,2,3,4-tetrahydronaphthalen-1-yl)-1,3,5-triazin-2-amine] | > 0.5 | ≤ 0.1 | A′ (A′ represents a ratio of greater than 8)
FC(F)c1nc2ccccc2n1-c1nc(N[C@H]2CCc3ccccc32)nc(N2CCOCC2)n1 [Compound A5, (S)-4-(2-(difluoromethyl)-1H-benzo[d]imidazol-1-yl)-N-(2,3-dihydro-1H-inden-1-yl)-6-morpholino-1,3,5-triazin-2-amine] | > 0.5 | 0.1 to 0.2 | A′ (A′ represents a ratio of greater than 8)
FC(F)c1nc2ccccc2n1-c1nc(NC2CCc3ccccc32)nc(N2CCOCC2)n1 (stereo not drawn) [Compound A4, 4-(2-(difluoromethyl)-1H-benzo[d]imidazol-1-yl)-N-(2,3-dihydro-1H-inden-1-yl)-6-morpholino-1,3,5-triazin-2-amine] | > 0.5 | ≤ 0.1 | A′ (A′ represents a ratio of greater than 8)
COc1ccc2c(c1)CCC2Nc1nc(N2CCOCC2)nc(-n2c(C(F)F)nc3ccccc32)n1 (stereo not drawn) [Compound A9, 4-(2-(difluoromethyl)-1H-benzo[d]imidazol-1-yl)-N-(5-methoxy-2,3-dihydro-1H-inden-1-yl)-6-morpholino-1,3,5-triazin-2-amine] | > 0.5 | 0.2 to 0.5 | C′ (C′ represents a ratio of greater than 2 but less than 4)
FC(F)c1nc2ccccc2n1-c1nc(N[C@@H]2CCCc3ccccc32)nc(N2CCOCC2)n1 [Compound A3, (R)-4-(2-(difluoromethyl)-1H-benzo[d]imidazol-1-yl)-6-morpholino-N-(1,2,3,4-tetrahydronaphthalen-1-yl)-1,3,5-triazin-2-amine] | > 0.5 | > 0.5 | B′ (B′ represents a ratio of no less than 4 but no greater than 8)
